The record followed here is US20230265103A1 (TME Therapeutics LLC, priority 2021, published 2023).

In one data set the target is T1, PIKFYVE (Homo sapiens, UniProt Q9Y2I7).
T1 construct: purchased Eurofins (KINOMEscan); host or cells: E. coli BL21-derived (T7 phage display) or HEK-293
Put plainly: KINOMEscan Kinase Assay (Eurofins), PIKFYVE inhibitory activity. The data set is classed as binding. As to conditions: KINOMEscan.

The test system of data set [1] is SARS-CoV-2 (strain USA-WA1/2020). Put plainly: SARS-CoV-2 antiviral assay (inhibition of CPE, neutral red). The data set is classed as cell-based. The following applies: SARS-COV2.
In data set [2] the test system is SARS-CoV-2 (Delta strain B.1.617). As to the kind of experiment: SARS-CoV-2 Delta antiviral assay (inhibition of CPE, neutral red). The class given is cell-based. As to conditions: SARS-COV2 (Delta).
The test system of data set [3] is influenza A strain California/07/09 (H1N1)pdm09. Put plainly: Influenza A antiviral assay (inhibition of CPE, neutral red). The class given is cell-based.
Data set [4] concerns Ebola virus (Mayinga strain) glycoprotein (rVSV-EBOV-GP). As to the kind of experiment: microbe, parasite or virus in culture. The data set is classed as cell-based.
Data set [5] concerns Marburg virus (Angola strain) glycoprotein (rVSV-MARV-GP). As to the kind of experiment: organism not typed. The data set is classed as cell-based.
The next data set can be described thus: in vitro. As to conditions: African green monkey.
In data set [6] the test system is JJN3 (multiple myeloma) cells. Put plainly: Anti-proliferative activity, JJN3 (CellTiter-Glo). As to conditions: Homo sapiens, JJN-3, 144 h.
The subject of data set [7] is HuT-78 (T cell lymphoma) cells. Put plainly: Anti-proliferative activity, HuT-78 (CellTiter-Glo). As to conditions: Homo sapiens, HuT78, 144 h. In general terms: Cellular ATP, detected with luciferase, serves as a proxy for viable cell number.

A word on the IC50: it is the concentration at which inhibition is half-maximal. As a reminder, the EC50 is the midpoint of the concentration-response curve.

T1 sequence (Q9Y2I7 whole entry): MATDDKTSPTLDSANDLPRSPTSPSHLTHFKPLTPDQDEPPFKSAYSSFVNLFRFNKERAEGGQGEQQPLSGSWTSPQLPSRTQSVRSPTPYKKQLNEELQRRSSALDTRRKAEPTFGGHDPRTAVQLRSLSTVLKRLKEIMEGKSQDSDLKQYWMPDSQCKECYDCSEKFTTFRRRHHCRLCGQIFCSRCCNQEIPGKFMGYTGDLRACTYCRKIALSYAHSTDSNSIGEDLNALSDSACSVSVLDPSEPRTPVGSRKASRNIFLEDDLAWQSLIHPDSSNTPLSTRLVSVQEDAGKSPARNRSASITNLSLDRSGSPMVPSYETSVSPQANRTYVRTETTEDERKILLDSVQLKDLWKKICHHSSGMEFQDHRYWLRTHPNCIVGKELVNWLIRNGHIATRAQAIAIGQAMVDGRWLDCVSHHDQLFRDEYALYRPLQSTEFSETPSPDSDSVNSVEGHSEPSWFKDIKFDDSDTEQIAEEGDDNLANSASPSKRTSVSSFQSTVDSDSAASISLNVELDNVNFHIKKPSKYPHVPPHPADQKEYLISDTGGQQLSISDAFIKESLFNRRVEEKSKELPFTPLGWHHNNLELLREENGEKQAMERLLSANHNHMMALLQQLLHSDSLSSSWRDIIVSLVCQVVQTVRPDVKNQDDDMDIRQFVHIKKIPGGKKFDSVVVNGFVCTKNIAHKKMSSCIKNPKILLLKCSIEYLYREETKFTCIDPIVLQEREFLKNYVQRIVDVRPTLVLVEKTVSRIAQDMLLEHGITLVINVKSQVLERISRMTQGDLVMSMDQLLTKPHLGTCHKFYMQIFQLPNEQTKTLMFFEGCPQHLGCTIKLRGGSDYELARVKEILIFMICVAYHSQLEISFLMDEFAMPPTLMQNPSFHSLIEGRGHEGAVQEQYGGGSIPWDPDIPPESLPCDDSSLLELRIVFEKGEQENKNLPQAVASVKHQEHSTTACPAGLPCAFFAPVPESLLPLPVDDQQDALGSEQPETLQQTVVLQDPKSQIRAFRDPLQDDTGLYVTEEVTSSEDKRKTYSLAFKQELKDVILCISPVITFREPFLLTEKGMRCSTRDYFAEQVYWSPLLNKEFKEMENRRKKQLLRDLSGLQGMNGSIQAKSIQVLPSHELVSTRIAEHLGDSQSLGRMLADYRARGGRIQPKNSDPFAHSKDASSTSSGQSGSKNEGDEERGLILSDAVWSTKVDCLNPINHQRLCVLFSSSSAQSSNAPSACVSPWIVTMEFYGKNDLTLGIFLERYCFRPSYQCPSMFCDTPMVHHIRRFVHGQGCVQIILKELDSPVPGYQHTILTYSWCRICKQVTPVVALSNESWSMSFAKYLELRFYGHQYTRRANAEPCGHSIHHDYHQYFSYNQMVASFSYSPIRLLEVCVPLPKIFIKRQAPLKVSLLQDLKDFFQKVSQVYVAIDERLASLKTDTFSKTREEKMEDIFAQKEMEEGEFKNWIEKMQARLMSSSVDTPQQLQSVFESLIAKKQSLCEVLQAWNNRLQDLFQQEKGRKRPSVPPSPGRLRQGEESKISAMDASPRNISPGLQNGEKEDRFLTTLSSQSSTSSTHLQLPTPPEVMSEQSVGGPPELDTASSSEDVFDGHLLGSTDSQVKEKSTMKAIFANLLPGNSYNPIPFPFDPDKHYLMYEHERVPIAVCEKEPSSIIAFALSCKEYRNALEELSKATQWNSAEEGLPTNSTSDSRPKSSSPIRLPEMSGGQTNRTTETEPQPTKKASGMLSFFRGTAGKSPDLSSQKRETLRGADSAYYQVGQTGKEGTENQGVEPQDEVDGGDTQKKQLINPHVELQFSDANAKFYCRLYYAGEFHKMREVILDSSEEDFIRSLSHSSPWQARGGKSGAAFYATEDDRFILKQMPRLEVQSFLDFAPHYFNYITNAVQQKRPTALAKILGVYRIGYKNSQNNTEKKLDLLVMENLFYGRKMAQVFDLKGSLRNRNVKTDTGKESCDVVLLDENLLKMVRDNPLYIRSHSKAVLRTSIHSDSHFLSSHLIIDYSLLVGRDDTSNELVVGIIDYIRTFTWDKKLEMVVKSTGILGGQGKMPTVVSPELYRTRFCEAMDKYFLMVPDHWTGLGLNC

The compound `Cc1cccc(-c2ccn(-c3nc(N4CCOCC4)c4sc(CN5CCN(S(C)(=O)=O)CC5)cc4n3)n2)c1` [Ex. 2, 4-(6-((4-(methylsulfonyl)piperazin-1-yl)methyl)-2-(3-(m-tolyl)-1H-pyrazol-1-yl)thieno[3,2-d]pyrimidin-4-yl)morpholine] returned an IC50 on PIKFYVE of less than 0.001 µM. In addition, the “Selectivity Index” value is more than 150 in [1] (CC50 divided by EC50); more than 1000 in data set [2] (CC50 divided by EC50); more than 150 in [3] (Influenza A, CC50 divided by EC50); more than 6000 in data set [4]; more than 15000 in [5]. The EC50 in data set [1] (Severe acute respiratory syndrome coronavirus 2, inhibition of CPE by 50%) was less than 1 µM; in data set [2] (Severe acute respiratory syndrome coronavirus 2) it was less than 3 µM; in [3] (Influenza A virus, H1N1), less than 1 µM; in [4] (Zaire ebolavirus, Vero) it was less than 0.5 µM; in data set [5] (Vero), less than 0.2 µM; in [6] it was less than 0.05 µM. In data set [7], this compound displayed an EC50 of less than 0.25 µM. In the data set “in vitro”, this compound yielded a CC50 of more than 3000 µM.
